Measured values: PubChem BioAssay AID2834 (Southern Research Specialized Biocontainment Screening …, 2010)
Active and inactive are the calls of the source.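 Rule for the calls: active = more than 40% inhibition of the growth reporter signal at one or more tested doses; inactive = below 40% inhibition at every dose.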

Test system: S. Typhimurium nmpC-GFP reporter (non-PhoP growth counter-screen), low Mg2+, 4 h
Test: nmpC-GFP reporter inhibition in S. Typhimurium, dose response, counter-screen for PhoP regulon inhibitor project, purified and synthesized compounds, set 2 (AID 2834)

Question: Which IC50 does the source give for `O=C(Nc1cccnc1)c1cc(Br)c(Br)s1` here?
Answer: < 0.15 µM

Question: How did the IC50 turn out when `COc1ccc(NC(=O)c2cc(Br)c(Br)s2)cn1` was run?
Answer: < 0.15 µM

Question: How did the IC50 turn out when `O=C(O)c1cn(-c2ccc(F)cc2)c2cc(Cl)c(F)cc2c1=O` was run?
Answer: < 0.15 µM

Question: With `CCn1cc(C(=O)O)c(=O)c2cc(F)c(N3CCN(C(=S)NC(=O)c4ccccc4Cl)CC3)cc21` as the compound, how does the IC50 read?
Answer: < 0.15 µM

Question: For `O=c1c2ccccc2[nH]c2ccc(F)cc12`, which IC50 is on record?
Answer: < 0.15 µM

Question: Which IC50 does the source give for `CCn1cc(C(=O)O)c(=O)c2cc(F)c(N3CCN(C(=S)NC(=O)c4ccccc4F)CC3)cc21` here?
Answer: < 0.15 µM

Question: How did the IC50 turn out when `S=C(NCc1ccccc1Cl)Nc1ccncc1` was run?
Answer: > 150 µM (inactive)

Question: Which IC50 does the source give for `CCn1cc(C(=O)O)c(=O)c2cc(F)c(N3CCN(C(=S)NC)CC3)cc21` here?
Answer: > 150 µM (inactive)

Question: `O=C(Nc1ccccc1)N1CCCN(Cc2ccc(F)cc2)C1` was tested. Which IC50 did it give?
Answer: > 150 µM (inactive)

Question: For `CCCCn1c(NS(=O)(=O)c2ccc(C)cc2)c(S(=O)(=O)c2ccccc2)c2nc3ccccc3nc21`, which IC50 is on record?
Answer: < 0.15 µM

Question: Which IC50 does the source give for `CN1CCc2nc(SCC(=O)Nc3cccc(F)c3)c(C#N)c(-c3cccs3)c2C1` here?
Answer: < 0.15 µM

Question: How did the IC50 turn out when `CSc1nc2cc(Oc3cccc(Cl)c3Cl)c(Cl)cc2[nH]1` was run?
Answer: < 0.15 µM

Question: How did the IC50 turn out when `CCOc1ccc(NC(=S)N2CCN(c3cc4c(cc3F)c(=O)c(C(=O)O)cn4CC)CC2)cc1` was run?
Answer: > 150 µM (inactive)

Question: Which IC50 does the source give for `O=C(NCc1ccccc1)N1CCCN(Cc2ccccc2F)C1` here?
Answer: > 150 µM (inactive)

Question: For `S=C(NCc1ccc(Cl)cc1)Nc1ccc(Br)cc1`, which IC50 is on record?
Answer: > 150 µM (inactive)

Question: `COc1ccccc1NC(=O)N1CCCN(Cc2ccccc2F)C1` was tested. Which IC50 did it give?
Answer: > 150 µM (inactive)

Question: Which IC50 does the source give for `COc1cccc(NC(=S)NCc2ccc(Cl)cc2)c1` here?
Answer: > 150 µM (inactive)

Question: For `Fc1ccccc1NC(=S)NCc1ccc(Cl)cc1`, which IC50 is on record?
Answer: > 150 µM (inactive)

Question: How did the IC50 turn out when `COc1cccc(C2Sc3ccccc3NC3=C2C(=O)c2ccccc23)c1` (configuration not stated) was run?
Answer: > 150 µM (inactive)

Question: How did the IC50 turn out when `Cc1ccc(NC(=S)NCc2ccc(Cl)cc2)cc1` was run?
Answer: > 150 µM (inactive)

Question: For `CCn1cc(C(=O)O)c(=O)c2cc(F)c(N3CCN(C(=S)Nc4ccccc4C(F)(F)F)CC3)cc21`, which IC50 is on record?
Answer: 76.4 µM

Question: For `N#C/C(=C\c1ccc[nH]1)C(=O)NC1CC1`, which IC50 is on record?
Answer: < 0.15 µM

Question: Which IC50 does the source give for `CCn1cc(C(=O)O)c(=O)c2cc(F)c(N3CCN(C(=S)NCc4ccccc4)CC3)cc21` here?
Answer: > 150 µM (inactive)

Question: `CN(C)CCCN(C(=O)CCc1ccccc1)c1nc2ccc(Cl)cc2s1` was tested. Which IC50 did it give?
Answer: < 0.15 µM

Question: How did the IC50 turn out when `O=C(Nc1nnc(-c2cccs2)o1)c1cccc(C(F)(F)F)c1` was run?
Answer: < 0.15 µM

Question: With `O=C(Nc1ccc(Cl)cc1)N1CCCN(Cc2ccccc2F)C1` as the compound, how does the IC50 read?
Answer: < 0.15 µM

Question: Which IC50 does the source give for `COc1ccccc1Nc1nc(NCc2ccco2)c2ccccc2n1` here?
Answer: < 0.15 µM

Question: How did the IC50 turn out when `S=C(NCc1ccc(Cl)cc1)Nc1ccc(Cl)cc1` was run?
Answer: > 150 µM (inactive)

Question: Which IC50 does the source give for `S=C(NCc1ccc(Cl)cc1)Nc1cccc(Cl)c1` here?
Answer: > 150 µM (inactive)

Question: With `CCn1cc(C(=O)O)c(=O)c2cc(F)c(N3CCN(C(=S)Nc4ccc(Cl)cc4)CC3)cc21` as the compound, how does the IC50 read?
Answer: 131 µM

Question: How did the IC50 turn out when `O=C1C2=C(Nc3ccccc3SC2c2ccc(C(F)(F)F)cc2)c2ccccc21` (configuration not stated) was run?
Answer: > 150 µM (inactive)

Question: Which IC50 does the source give for `O=C(Nc1ccccc1)N1CCCN(Cc2ccccc2F)C1` here?
Answer: > 150 µM (inactive)

Question: Which IC50 does the source give for `O=C1C2=C(Nc3ccccc3SC2c2ccsc2)c2ccccc21` (configuration not stated) here?
Answer: > 150 µM (inactive)

Question: `Cc1cccc(NC(=S)NCc2ccc(Cl)cc2)c1` was tested. Which IC50 did it give?
Answer: > 150 µM (inactive)

Question: How did the IC50 turn out when `COc1ccc(NC(=S)NCc2ccc(Cl)cc2)cc1` was run?
Answer: > 150 µM (inactive)

Question: `O=C(Nc1ccccc1Cl)N1CCCN(Cc2ccccc2F)C1` was tested. Which IC50 did it give?
Answer: > 150 µM (inactive)

Question: Which IC50 does the source give for `O=C(Nc1ccc(Br)cc1)N1CCCN(Cc2ccccc2F)C1` here?
Answer: > 150 µM (inactive)

Question: For `S=C(NCc1ccc(Cl)cc1)Nc1cccnc1`, which IC50 is on record?
Answer: > 150 µM (inactive)

Question: `O=C1C2=C(Nc3ccccc3SC2c2ccccc2C(F)(F)F)c2ccccc21` (configuration not stated) was tested. Which IC50 did it give?
Answer: > 150 µM (inactive)

Question: How did the IC50 turn out when `O=[N+]([O-])c1ccc(CNC2CCCc3ccccc32)cc1` (configuration not stated) was run?
Answer: < 0.15 µM

Question: For `O=C(Nc1ccc(Cl)cc1)N1CCCN(Cc2ccc(F)cc2)C1`, which IC50 is on record?
Answer: > 150 µM (inactive)

Question: For `O=C1C2=C(Nc3ccccc3SC2c2ccccc2Cl)c2ccccc21` (configuration not stated), which IC50 is on record?
Answer: > 150 µM (inactive)

Question: How did the IC50 turn out when `COc1c(N2CCN(C(=S)NCc3ccccc3)C(C)C2)c(F)cc2c(=O)c(C(=O)O)cn(C3CC3)c12` (configuration not stated) was run?
Answer: < 0.15 µM

Question: `CCn1cc(C(=O)O)c(=O)c2cc(F)c(N3CCN(C(=S)Nc4ccccc4Cl)CC3)cc21` was tested. Which IC50 did it give?
Answer: > 150 µM (inactive)

Question: `CN1CCN(C2=Cc3cc(Cl)ccc3Sc3cc(F)ccc32)CC1` was tested. Which IC50 did it give?
Answer: < 0.15 µM

Question: With `CCCCCNC(=O)c1cn(CC)c2cc(N3CCN(C)CC3)c(F)cc2c1=O` as the compound, how does the IC50 read?
Answer: < 0.15 µM

Question: With `CCn1cc(C(=O)O)c(=O)c2cc(F)c(N3CCN(C(=S)Nc4ccccc4C)CC3)cc21` as the compound, how does the IC50 read?
Answer: > 150 µM (inactive)

Question: With `C1=C(CCNc2ncnc3c2[nH]c2ccccc23)CCCC1` as the compound, how does the IC50 read?
Answer: < 0.15 µM

Question: How did the IC50 turn out when `O=C1C2=C(Nc3ccccc3SC2c2cccc(Cl)c2)c2ccccc21` (configuration not stated) was run?
Answer: > 150 µM (inactive)

Question: `CCCCn1c(NS(=O)(=O)c2ccccc2)c(S(=O)(=O)c2ccc(C)cc2)c2nc3ccccc3nc21` was tested. Which IC50 did it give?
Answer: < 0.15 µM

Question: `O=C1C2=C(Nc3ccccc3SC2c2ccccc2Br)c2ccccc21` (configuration not stated) was tested. Which IC50 did it give?
Answer: > 150 µM (inactive)

Question: `Cc1ccc(CN2CCCN(C(=O)Nc3ccc(Cl)cc3)C2)cc1` was tested. Which IC50 did it give?
Answer: > 150 µM (inactive)

Question: With `COc1ccc(CNC(=S)Nc2ccncc2)cc1` as the compound, how does the IC50 read?
Answer: > 150 µM (inactive)

Question: How did the IC50 turn out when `O=C1C2=C(Nc3ccccc3SC2c2ccco2)c2ccccc21` (configuration not stated) was run?
Answer: < 0.15 µM

Question: Which IC50 does the source give for `O=S(=O)(Nc1c(S(=O)(=O)c2ccccc2)c2nc3ccccc3nc2n1C1CCCCC1)c1ccccc1` here?
Answer: < 0.15 µM

Question: For `Cc1ccc(Nc2cc(C)c3c(O)cccc3n2)cc1C`, which IC50 is on record?
Answer: < 0.15 µM

Question: With `O=C1c2ccccc2C2=Nc3ccccc3SC(c3ccccc3F)C12` (configuration not stated) as the compound, how does the IC50 read?
Answer: < 0.15 µM
